Measured values published in patent US10753941B2, “Biocompatible nanoparticles with aggregation induced emission characteristics as fluorescent bioprobes and methods of using the same for in vitro and in vivo imaging” (The Hong Kong University of Science and Technology, priority 2011, dated 2020).
Where two headings read alike, the source gives them in different places. Each block holds one molecule with its values, some of them ahead of it. Residues, ends and D or L forms follow the SMILES beside them. *: point of attachment. X1 = O=C(CCCc1cn(Cc2ccc(C(=C(c3ccccc3)c3ccccc3)c3ccccc3)cc2)nn1)*

What was measured:
[1] = Water solubility / aggregation of probes in water (LLS, PL); assay type: physicochemical; conditions: for average diameter of nanoaggregates in water (LLS): DMSO/water v/v=1:199, 10 μM
From the text: FIG. 32A illustrates the UV-vis absorption spectra of BATPS (5) and TPS-2cRGD. Both have a similar absorption profile with the maximum at 356 nm. The corresponding photoluminescence (PL) spectra are shown in FIG. 32B, along with the photographs taken under UV irradiation. It is known that AIE fluorogens are virtually non-fluorescent in good solvents but emit intensely when aggregated in poor solvents.
It is well known that AIE dye is virtually non-luminescent in good solvents but emits intensely when aggregated in its poor solvents. […] The excited states are readily annihilated by the intramolecular rotations of phenyl rings. Therefore, very low fluorescence was observed.

human integrin αvβ3 = target: T1, human integrin αvβ3 (Homo sapiens, UniProt P05106+P06756); assay: Titration of TPS-2cRGD with integrin (fluorescence turn-on); assay type: binding
T1 construct: purchased ImmunoCell
T1 sequence (P06756 31-1048): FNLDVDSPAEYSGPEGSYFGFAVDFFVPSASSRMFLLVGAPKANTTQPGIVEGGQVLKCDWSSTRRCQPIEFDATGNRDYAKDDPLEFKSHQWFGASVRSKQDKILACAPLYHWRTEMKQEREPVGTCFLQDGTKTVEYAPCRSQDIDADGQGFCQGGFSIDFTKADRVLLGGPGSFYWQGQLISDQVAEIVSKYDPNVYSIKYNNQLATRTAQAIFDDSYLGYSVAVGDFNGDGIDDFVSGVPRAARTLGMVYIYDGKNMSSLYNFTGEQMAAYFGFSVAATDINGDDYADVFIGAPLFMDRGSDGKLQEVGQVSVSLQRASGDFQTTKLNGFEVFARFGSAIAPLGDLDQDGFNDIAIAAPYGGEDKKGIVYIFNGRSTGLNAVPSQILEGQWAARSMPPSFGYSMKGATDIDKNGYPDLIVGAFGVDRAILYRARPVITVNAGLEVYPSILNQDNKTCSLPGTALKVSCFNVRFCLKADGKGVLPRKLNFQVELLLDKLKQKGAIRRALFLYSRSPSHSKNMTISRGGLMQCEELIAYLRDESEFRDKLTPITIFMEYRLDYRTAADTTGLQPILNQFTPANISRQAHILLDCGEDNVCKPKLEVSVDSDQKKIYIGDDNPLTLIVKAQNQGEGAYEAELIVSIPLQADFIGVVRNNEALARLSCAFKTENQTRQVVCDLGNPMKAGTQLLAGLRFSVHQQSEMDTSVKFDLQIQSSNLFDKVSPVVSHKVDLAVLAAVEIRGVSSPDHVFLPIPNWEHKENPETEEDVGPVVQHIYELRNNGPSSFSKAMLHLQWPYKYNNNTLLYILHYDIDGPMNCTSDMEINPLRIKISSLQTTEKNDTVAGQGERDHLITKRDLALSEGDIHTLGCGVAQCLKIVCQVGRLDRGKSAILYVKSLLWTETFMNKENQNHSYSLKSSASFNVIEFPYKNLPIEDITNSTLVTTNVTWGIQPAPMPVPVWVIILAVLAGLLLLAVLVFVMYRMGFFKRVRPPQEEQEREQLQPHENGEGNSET
T1 sequence (P05106 27-788): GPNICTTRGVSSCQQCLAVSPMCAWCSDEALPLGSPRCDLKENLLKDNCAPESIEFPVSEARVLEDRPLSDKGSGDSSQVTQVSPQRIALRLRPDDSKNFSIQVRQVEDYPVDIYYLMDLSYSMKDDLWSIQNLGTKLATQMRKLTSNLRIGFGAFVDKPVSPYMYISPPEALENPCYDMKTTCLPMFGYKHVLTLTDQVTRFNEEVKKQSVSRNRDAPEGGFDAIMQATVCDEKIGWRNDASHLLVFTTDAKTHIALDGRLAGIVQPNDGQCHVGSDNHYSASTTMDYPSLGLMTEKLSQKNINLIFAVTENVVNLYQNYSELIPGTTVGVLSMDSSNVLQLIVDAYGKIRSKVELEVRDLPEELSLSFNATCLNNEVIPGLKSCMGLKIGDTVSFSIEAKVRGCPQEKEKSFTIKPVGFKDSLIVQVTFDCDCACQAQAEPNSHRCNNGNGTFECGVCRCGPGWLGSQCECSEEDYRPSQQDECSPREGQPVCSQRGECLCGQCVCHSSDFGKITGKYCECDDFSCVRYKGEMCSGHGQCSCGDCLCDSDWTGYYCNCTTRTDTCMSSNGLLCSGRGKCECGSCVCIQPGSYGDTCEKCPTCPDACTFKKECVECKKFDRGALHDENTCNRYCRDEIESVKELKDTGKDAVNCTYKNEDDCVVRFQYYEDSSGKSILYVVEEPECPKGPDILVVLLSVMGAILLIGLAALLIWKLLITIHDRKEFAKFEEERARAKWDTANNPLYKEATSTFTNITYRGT
Method: (§1) 5 μL of the protein stock solution was diluted with 40 μL of 1×PBS buffer (pH 7.4). 5 μL of TPS-2cRGD (10 μM) was then added and the reaction mixture was incubated at room temperature for 30 min. The reaction mixture was then diluted to a total of 300 μL with deionized water for photoluminescence measurement. The solution was excited at 356 nm, and the emission was collected from 380 to 650 nm.

[2] = tested on: lysozyme, papain, trypsin and BSA; assay: Titration of TPS-2cRGD with other proteins (selectivity); assay type: binding; conditions: 100 μg mL^−1 protein
Method: as §1

[3] = tested on: HT-29 colon cancer cells with overexpressed integrin αvβ3; assay: Confocal imaging at 4° C. with TPS-2cRGD; assay type: cell-based
Method: (§2) Before the detection of integrin αvβ3, HT-29 and MCF-7 cells were cultured in the chambers (LAB-TEK, Chambered Coverglass System) at 37° C., respectively. After 80% confluence, the adherent cells were washed twice with 1×PBS buffer. The TPS-2cRGD solution (2 μM, 0.3 mL) was then added to the chamber. After incubation for 30 min at 4° C., cells were washed two times with 1×PBS buffer and then treated with membrane tracker for 10 min and further washed twice with 1×PBS buffer. The cells were then imaged immediately by confocal laser scanning microscope (CLSM, Zeiss LSM 410, Jena, Germany) with imaging software (Fluoview FV500). The images are analyzed by ImageJ 1.43× program (developed by NIH). The images were taken upon excitation at 405 nm (5% laser power) with a band pass 505-525 nm filter for the probe, and 543 nm (5% laser power) with a band pass 575-635 nm filter for the membrane tracker.

[4] = tested on: MCF7 breast cancer cells with low integrin αvβ3 expression; assay: Confocal imaging at 4° C. with TPS-2cRGD; assay type: cell-based; conditions: 2 μM, 30 min
Method: as §2

HT-29 cells = assay: Real-time uptake imaging of TPS-2cRGD; assay type: cell-based; conditions: 2 μM, room temperature
Method: HT-29 cells were cultured in the 8-wells chambers (LAB-TEK, Chambered Coverglass System) at 37° C. After 80% confluence, the adherent cells were washed twice with 1×PBS buffer. The TPS-2cRGD solution (2 μM, 0.3 mL) and a small amount of membrane tracker were then added to the chamber. The chambers were placed on the microscope platform immediately and the microscope focused on a collection of cells. The fluorescence images (405 nm excitation and with a band pass 505-525 nm filter for the probe, and 543 nm excitation with a band pass 575-635 nm filter for the membrane tracker) acquired every 5 min.

[5] = MTT cytotoxicity of TPS-2cRGD; assay type: cell-based; conditions: human, HT-29 cancer cells; 2, 5 and 10 μM for 12, 24 and 48 h; read-out: metabolic viability
Method: Methylthiazolyldiphenyl-tetrazolium (MTT) assays were used to assess the metabolic activity of HT-29 cancer cells to study the cytotoxicity of TPS-2cRGD. HT-29 cells were seeded in 96-well plates (Costar, Ill., USA) at an intensity of 4×10^4 cells mL^−1. After 24 h incubation, the medium was replaced by the TPS-2cRGD suspension at concentrations of 2, 5, and 10 μM, and the cells were then incubated for 12, 24 and 48 h, respectively. After the designated time intervals, the wells were washed twice with 1×PBS buffer and 100 μL of freshly prepared MTT (0.5 mg mL^−1) solution in culture medium was added into each well. The MTT medium solution was carefully removed after 3 h incubation in the incubator at 37° C. DMSO (100 μL) was then added into each well and the plate was gently shaken to dissolve all the precipitates formed. The absorbance of MTT at 570 nm was monitored by the microplate reader (Genios Tecan). Cell viability was expressed by the ratio of absorbance of the cells incubated with TPS-2cRGD suspension to that of the cells incubated with culture medium only.

caspase-3 [6] = target: T2, caspase-3 (Homo sapiens, UniProt P42574); assay: Caspase turn-on assay of AcDEVDK-TPE; assay type: biochemical
T2 construct: purchased R&D Systems
T2 sequence (P42574 29-175 limits assumed): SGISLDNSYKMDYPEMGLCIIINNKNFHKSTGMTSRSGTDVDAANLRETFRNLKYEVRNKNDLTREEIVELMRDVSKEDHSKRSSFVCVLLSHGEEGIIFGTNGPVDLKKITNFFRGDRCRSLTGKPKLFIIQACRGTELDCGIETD
T2 sequence (P42574 176-277 limits assumed): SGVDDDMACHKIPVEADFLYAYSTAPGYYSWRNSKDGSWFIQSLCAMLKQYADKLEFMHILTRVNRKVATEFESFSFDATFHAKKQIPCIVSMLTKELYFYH
From the text: (§3) Cleavage of the peptide substrates AcDEVDK-TPE by caspase-3 or caspase-7 was monitored in quartz cells or in black flatbottom polypropylene 384-well plates (Nunc, USA). The corresponding concentrations of substrate and enzymes were used for each assay. Enzymatic cleavage of the substrates was monitored by fluorescence increase (excitation and emission wavelengths at 312 nm and 480 nm respectively) with on a Perkin-Elmer LS 55 spectrofluorometer or a Synergy TM 2 multi-mode microplate reader (Biotek Instruments).

caspase-7 = target: T3, caspase-7 (Homo sapiens, UniProt P55210); assay: Caspase turn-on assay of AcDEVDK-TPE; assay type: biochemical
T3 construct: purchased R&D Systems
T3 sequence (P55210 24-198 limits assumed): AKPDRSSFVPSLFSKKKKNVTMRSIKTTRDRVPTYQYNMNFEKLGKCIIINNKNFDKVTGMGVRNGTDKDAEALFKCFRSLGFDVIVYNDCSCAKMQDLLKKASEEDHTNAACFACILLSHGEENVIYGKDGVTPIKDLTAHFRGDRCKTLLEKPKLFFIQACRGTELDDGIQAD
T3 sequence (P55210 207-303 limits assumed): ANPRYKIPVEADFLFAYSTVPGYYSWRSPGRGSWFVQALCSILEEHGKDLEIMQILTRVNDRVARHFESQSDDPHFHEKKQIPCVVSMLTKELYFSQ
From the text: as §3

[7] = tested on: BSA, HSA, Lysozyme, Pepsin and Trypsin; assay: Selectivity of AcDEVDK-TPE against other proteins; assay type: biochemical; conditions: 20 μg mL^−1 protein, 5 μM probe
Method: AcDEVDK-TPE was treated with five other enzymes which are widely present in cells, such as BSA, HSA, Lysozyme, Pepsin and Trypsin under the same conditions.

HeLa cells = assay: Apoptosis imaging in live cells with AcDEVDK-TPE; assay type: cell-based, human; conditions: 5 μM probe
Method: The cells were cultured in the chambers (LAB-TEK, Chambered Coverglass System) at 37° C., respectively. After 80% confluence, the adherent cells were washed twice with 1×PBS buffer. The AcDEVD-TPE solution (5 μM, 0.3 mL) was then added to the chamber. After incubation for 2 h at 37° C., cells were washed two times with 1×PBS buffer. To induce apoptosis, cells were incubated with 1.0 μM of staurosporine for 1 hr and then imaged immediately by confocal laser scanning microscope (CLSM, Zeiss LSM 410, Jena, Germany) with imaging software (Fluoview FV500). The images are analyzed by ImageJ 1.43× program (developed by NIH).

caspase-3 [8] = target: T2, caspase-3; assay: Caspase-3 turn-on and hydrolysis of E/Z-TPE-2DEVD; assay type: biochemical; conditions: for fluorescence turn-on with caspase-3: 10 μM probe, PIPES buffer, caspase-3 100 pM, 37° C.; for rate of enzyme activated hydrolysis (HPLC): recombinant caspase-3 in buffer
Method: Both have a similar absorption profile with an obvious absorbance in the 270-380 nm range.
The enzyme kinetic studies by incubating recombinant caspase-3 with E/Z-TPE-2DEVD in buffer at 37° C. were subsequently performed, and the changes in probe hydrolysis were monitored with HPLC. DMSO stock solutions of TPE-2DEVD were diluted with caspase-3assay buffer (50 mM PIPES, 100 mM NaCl, 1 mM EDTA, 0.1% w/v CHAPS, 25% w/v sucrose, pH=7.2) to make 10 μM working solutions. 5 μL of the recombinant caspase-3 (˜0.04 μg/μL stock solution in assay buffer) was added into the above working solution. The reaction mixture was incubated at room temperature for 60 min and was then diluted to a total of 300 μL with deionized water for photoluminescence measurement. The solution was excited at 312 nm, and the emission was collected from 360 to 600 nm.

MCF-7 cancer cells = assay: Long term cellular tracking with two-photon fluorescence imaging; assay type: cell-based; conditions: 1 μM, 4 h incubation; FTNPs two-photon 800 nm, MTR one-photon 560 nm
Method: The performance of FTNPs in MCF-7 cancer cell tracking was investigated and compared with that of commercial Mitotracker red (MTR).
MCF-7 breast cancer cells were cultured in Dulbecco's Modified Eagle Medium (DMEM) containing 10% fetal bovine serum and 1% penicillin streptomycin at 37° C. in a humidified environment containing 5% CO2.
Prior to the experiment, MCF-7 breast cancer cells were pre-cultured until confluence was reached. After incubation with FTNPs and Mitotracker red (MTR) in DMEM medium (FBS-free) at 1 μM T1 and MTR for 4 h at 37° C., respectively, the corresponding cells were detached by 1× tripsin and suspended in culture medium with different cell densities. The cells were then cultured on round coverslip in 35 mm petri dishes for 0, 1, 2, 3, 4 and 5 days, respectively. After designated time intervals, the medium was removed and the adherent cells were washed twice with 1×PBS buffer, followed by fixation using 75% ethanol for 20 minutes. The cells were further washed twice with 1×PBS buffer and the coverslips were then mounted on glass slides using mounting medium in purpose of long-term storage. […] The detection of two-photon excited fluorescence of FTNPs was achieved by excitation at 800 nm with a 600-800 nm bandpass filter. On the other hand, the one-photon excited fluorescence signal from MTR was collected with a 600-800 nm bandpass filter upon 560 nm excitation.

[9] = tested on: caspase-3, pepsin, BSA, trypsin, papain and lysozyme; conditions: protein 100 pM, identical conditions
Method: To further investigate the probe selectivity, Z-TPE-2DEVD was treated with several proteins, such as caspase-3, pepsin, BSA, trypsin, papain and lysozyme, under identical conditions.

[10] = inferred from weak fluorescence / LLS

Molecule: C[Si]1(C)C(c2ccc(Cn3cc(C[C@@H]4NC(=O)[C@@H](Cc5ccccc5)NC(=O)[C@H](CC(=O)O)NC(=O)CNC(=O)[C@H](CCCNC(=N)N)NC4=O)nn3)cc2)=C(c2ccccc2)C(c2ccccc2)=C1c1ccc(Cn2cc(C[C@@H]3NC(=O)[C@@H](Cc4ccccc4)NC(=O)[C@H](CC(=O)O)NC(=O)CNC(=O)[C@H](CCCNC(=N)N)NC3=O)nn2)cc1 [TPS-2cRGD]
average diameter of nanoaggregates in water (LLS) [1]: no detectable signal
solubility in water [1, 10]: good solubility in water
fluorescence enhancement on incubation with integrin αvβ3 (human integrin αvβ3; 10 μM probe, integrin 0 to 100 μg mL^−1): up to a seven-fold fluorescence enhancement
limit of detection for integrin αvβ3 in solution (human integrin αvβ3; three times the standard deviation): 4 µg/mL
change of PL intensity with other proteins [2]: very little change of PL intensity
fluorescent signal of live cells (CLSM) ([3]; 2 μM, 30 min, 4° C.): strong fluorescent signal
fluorescent signal after pre-treatment with free cyclic RGD peptide ([3]; 10 μM cyclic RGD peptide, then 2 μM probe): significantly reduced
fluorescent signal of live cells (CLSM) [4]: very weak fluorescence
incubation time after which the probe is gradually internalized within cells (HT-29 cells): > 25 min
viability [5]: ~100%

fluorescence on incubation with caspase-3 (caspase-3 [6]; 0 to 120 min): time-dependent increase in fluorescence
fluorescence enhancement with caspase-3 (caspase-3 [6]; 5 μM probe, 200 pM caspase-3): up to ten-fold fluorescence enhancement
fluorescence with caspase-3 pretreated with inhibitor (caspase-3 [6]; 10 μM caspase inhibitor): no fluorescence turn-on
fluorescence on incubation with caspase-7 (caspase-7; 0 to 120 min): time-dependent increase in fluorescence
fluorescence with caspase-7 pretreated with inhibitor (caspase-7; 10 μM caspase inhibitor): no fluorescence turn-on
Molecule: CC(=O)N[C@@H](CC(=O)O)C(=O)N[C@@H](CCC(=O)O)C(=O)N[C@H](C(=O)N[C@@H](CC(=O)O)C(=O)N[C@@H](CCCCNC(=O)CCCc1cn(Cc2ccc(C(=C(c3ccccc3)c3ccccc3)c3ccccc3)cc2)nn1)C(N)=O)C(C)C [AcDEVDK-TPE] (Ac-DEVDK(X1)-NH2)
solubility in water [1]: good solubility in water
change of PL intensity with other proteins [7]: very little change of PL intensity
fluorescence in nonapoptotic cells (HeLa cells): very weak green fluorescence
fluorescence in apoptotic cells (HeLa cells; apoptosis induced with staurosporine): strong green fluorescence

Molecule: E-TPE-2DEVD: stereoisomer of Asp-Glu-Val-Asp (DEVD) peptide-conjugated TPE probe (TPE-2DEVD)
solubility in water [1, 10]: good solubility in water
fluorescence turn-on with caspase-3 (caspase-3 [8]): strong fluorescence signals
rate of enzyme activated hydrolysis (HPLC) (caspase-3 [8]): faster

Molecule: ClCc1ccc(C2=c3cc4c5c(c3Oc3c2cc2c6c3CCCN6CCC2)CCC[N+]=5CCC4)cc1.[Cl-] [MTR]
time over which fluorescence in treated cells is sustained / detectable (MCF-7 cancer cells): 1 days

Molecule: C[Si]1(C)C(c2ccc(CN=[N+]=[N-])cc2)=C(c2ccccc2)C(c2ccccc2)=C1c1ccc(CN=[N+]=[N-])cc1 [BATPS, 1,1-dimethyl-2,5-bis[4-(azidomethyl)phenyl]-3,4-diphenylsilole]
average diameter of nanoaggregates in water (LLS) [1]: 103 nm

Molecule: Z-TPE-2DEVD: stereoisomer of Asp-Glu-Val-Asp (DEVD) peptide-conjugated TPE probe (TPE-2DEVD)
solubility in water [1, 10]: good solubility in water
fluorescence turn-on with caspase-3 (caspase-3 [8]): stronger fluorescence enhancement
rate of enzyme activated hydrolysis (HPLC) (caspase-3 [8]): slower hydrolysis rate
probe selectivity, changes in (I−I0)/I0 [9]: specific probe for caspase-3
